The text below walks through data of PMC7037283, “Introduction of Mercaptoethyl at Sorafenib Pyridine-2-Amide Motif as a Potentially Effective Chain to Further get Sorafenib-PEG-DGL” (Molecules, 2020).

Molecules are shown by their SMILES.

The subject of data set [1] is MDA-MB-231 (triple negative breast cancer). The data set can be described thus: MTT anti-proliferative assay, MDA-MB-231. It counts as cell-based. The following applies: Homo sapiens, 48 h treatment. The method, then: (§1) The in vitro anti-proliferation of the chemical compounds was measured by the MTT reagent. Briefly, 5 × 10^3 cells in 100 μL of medium per well were plated in 96-well plates. After being incubated for 24 h at 37 °C, the cells were treated with different concentration of tested compound or DMSO (as negative control) for 48 h. Then the medium with compound or DMSO was replaced with 200 μL of fresh medium containing 10% MTT (5 mg/mL in PBS) in each well and incubated at 37 °C for 4 h. Last, the MTT-containing medium was discarded and 150 μL of DMSO per well was added to dissolve the formazan crystals newly formed. Absorbance of each well was determined by a microplate reader (Synergy H4, Bio-Tek) at a 570 nm wavelength. The inhibition rates of proliferation were calculated with the following equation:Inhibition ratio (%) = (ODDMSO−ODcompd)/(ODDMSO−ODblank) × 100(1)
(§2) The concentration of the compounds that inhibited cell growth by 50% (IC50) was calculated using GraphPad Prism, version 6.0.
Background: Tetrazolium assays rely on reduction of a dye to a coloured formazan, in cell work by metabolically active cells.

A further data set concerns Huh7. The data set can be described thus: MTT anti-proliferative assay, Huh7. Type of data set: cell-based. The following applies: Homo sapiens, Huh-7, 48 h treatment. The method, then: as §1, §2
Another data set deals with 293T. Description: MTT anti-proliferative assay, nontumorigenesis cells 293T. Type of data set: cell-based. The following applies: Homo sapiens, HEK-293T, 48 h treatment. Here is the method: as §1, §2
Data set [2] has as its system Hela (human cervical carcinoma). The data set can be described thus: MTT anti-proliferative assay, Hela. The following applies: 48 h treatment. It counts as cell-based. Here is the method:
as §1, §2

Data set [3] relates to mouse melanoma cell line B16F10. The data set can be described thus: MTT anti-proliferative assay, B16F10. It counts as cell-based. The following applies: B16-F10, 48 h treatment. Here is the method: as §1, §2
For the next data set, the system named is HepG2. The data set can be described thus: MTT anti-proliferative assay, HepG2. The following applies: Homo sapiens, 48 h treatment. It counts as cell-based. The method, then: as §1, §2
The subject of a further data set is MCF-7. Description: MTT anti-proliferative assay, MCF-7. The following applies: Homo sapiens, MCF7, 48 h treatment. It counts as cell-based. The method, then: as §1, §2
Data set [4] deals with HUVEC (Human Umbilical Vein Endothelial Cells). Description: MTT anti-proliferative assay, nontumorigenesis cells HUVEC. The following applies: 48 h treatment. Type of data set: cell-based. The method, then: as §1, §2
For another data set, the system named is A549. The data set can be described thus: MTT anti-proliferative assay, A549. The following applies: Homo sapiens, 48 h treatment. Type of data set: cell-based. Here is the method: as §1, §2

One may read the IC50 as the midpoint of a concentration-inhibition curve. By melting point is commonly meant the temperature, or range, at which the solid turns liquid. For `O=C(Nc1ccc(Oc2ccnc(C(=O)NCCO)c2)cc1)Nc1ccc(Cl)c(C(F)(F)F)c1` [Compound 10a, N-(2-hydroxyethyl)-4-(4-(3-(4-chloro-3-(trifluoromethyl)phenyl)ureido)phenoxy)picolinamide], the melting point lay within 193 to 195 °C. The IC50 in data set [1] is over 500 µM. In the data set on Huh7, the IC50 was found to be 319 µM. Moreover, the IC50 in the data set on 293T was 643 µM. Further, in [2], the IC50 is over 500 µM. Also, the IC50 in [3] was over 500 µM. For the same compound, the IC50 with HepG2 turned out to be 70.7 µM. Also, the IC50 in the data set on MCF-7 came to 471 µM. Further, the IC50 in [4] turned out to be 583 µM. For the same compound, the IC50 in the data set on A549 was found to be 287 µM.
In the case of `O=C(Nc1ccc(Oc2ccnc(C(=O)NCCS)c2)cc1)Nc1ccc(Cl)c(C(F)(F)F)c1` [Compound 10b, N-(2-mercaptoethyl)-4-(4-(3-(4-chloro-3-(trifluoromethyl)phenyl)ureido)phenoxy) picolinamide], the IC50 was 295 µM in [1]; 58.8 µM in the data set with Huh7; 135 µM in the data set with 293T; 63.7 µM in data set [2]; over 500 µM in data set [3]; 282 µM with HepG2. Moreover, the IC50 was determined as 159 µM in the data set on MCF-7, 197 µM in data set [4] and 447 µM with A549.
In turn, `O=C(Nc1ccc(Oc2ccnc(C(=O)NCCCO)c2)cc1)Nc1ccc(Cl)c(C(F)(F)F)c1` [Compound 10c, N-(3-hydroxypropyl)-4-(4-(3-(4-chloro-3-(trifluoromethyl)phenyl)ureido)phenoxy)picolinamide] displayed a melting point of 103 to 105 °C. The IC50 in [1] worked out at 330 µM. Further, in the data set with Huh7, the IC50 was determined as 88.4 µM. The IC50 in the data set with 293T is 454 µM. In addition, the IC50 in [2] came to 233 µM. The IC50 in data set [3] is 449 µM. The IC50 in the data set with HepG2 came out at 90.1 µM. The IC50 in the data set on MCF-7 was 268 µM. The IC50 in data set [4] was determined as 329 µM. The IC50 in the data set with A549 was over 500 µM.
Turning to `CC(CO)NNC(=O)c1cc(Oc2ccc(NC(=O)Nc3ccc(Cl)c(C(F)(F)F)c3)cc2)ccn1` (stereo not shown) [Compound 15a, 1-(4-Chloro-3-(trifluoromethyl)phenyl)-3-(4-((2-(2-(1-hydroxypropan-2-yl)hydrazine-1-carbonyl)pyridin-4-yl)oxy)phenyl)urea], the melting point was 139 to 141 °C. Moreover, the IC50 in data set [1] was over 500 µM. Also, the IC50 in the data set with Huh7 is over 500 µM. Besides, in the data set on 293T, the IC50 came out at 1580 µM. Also, the IC50 in data set [2] was over 500 µM. In addition, the IC50 in data set [3] is over 500 µM. Besides, the IC50 in the data set with HepG2 came out at 80.1 µM. Moreover, in the data set with MCF-7, the IC50 is over 500 µM. In data set [4], the IC50 turned out to be 320 µM. For the same compound, the IC50 with A549 was 46.2 µM.
With `CC(CCO)NNC(=O)c1cc(Oc2ccc(NC(=O)Nc3ccc(Cl)c(C(F)(F)F)c3)cc2)ccn1` (stereo not shown) [Compound 15b, 1-(4-Chloro-3-(trifluoromethyl)phenyl)-3-(4-((2-(2-(4-hydroxybutan-2-yl)hydrazine-1-carbonyl)pyridin-4-yl)oxy)phenyl)urea], the melting point is 89 to 92 °C. In addition, in data set [1], the IC50 is over 500 µM. The IC50 in the data set on Huh7 is over 500 µM. In addition, in the data set on 293T, the IC50 worked out at 559 µM. For the same compound, in [2], the IC50 was over 500 µM. In addition, the IC50 in data set [3] is over 500 µM. The IC50 with HepG2 is over 500 µM. The IC50 in the data set with MCF-7 was over 500 µM. Also, the IC50 in data set [4] came out at 1250 µM. In addition, the IC50 with A549 is over 500 µM.
Take `CNC(=O)c1cc(Oc2ccc(NC(=O)Nc3ccc(Cl)c(C(F)(F)F)c3)cc2)ccn1` [Sorafenib]: the IC50 in [1] turned out to be 12.3 µM; with Huh7, 19.5 µM; in the data set on 293T, 16.1 µM; in [2], 49.5 µM; in [3] it was 17.3 µM; in the data set on HepG2, 24.1 µM. Further, the values for the IC50 (in the data set on MCF-7; in data set [4]; with A549) were 37.2 µM, 35.5 µM and 17.4 µM, respectively.
